Results published in ChEMBL document CHEMBL3112508, “IV. Discovery of CXCR3 antagonists substituted with heterocycles as amide surrogates: improved PK, hERG and metabolic profiles” (Bioorg Med Chem Lett, 2014).

Columns and labels:
[1] = biological target: Voltage-gated inwardly rectifying potassium channel KCNH2 (Homo sapiens, UniProt Q12809); test: Inhibition of human ERG channel by Rb efflux assay
Rattus norvegicus [2] = test: (§1) AUC in rat at 10 mg/kg, po; assay type: ADME, organism-based, Plasma; set-up: dose 10 mg/kg, route oral; settings: in vivo
[3] = biological target: T1, C-X-C chemokine receptor type 3 (Homo sapiens, UniProt P49682); test: Binding affinity to human CXCR3 receptor
T1 sequence (P49682 whole entry): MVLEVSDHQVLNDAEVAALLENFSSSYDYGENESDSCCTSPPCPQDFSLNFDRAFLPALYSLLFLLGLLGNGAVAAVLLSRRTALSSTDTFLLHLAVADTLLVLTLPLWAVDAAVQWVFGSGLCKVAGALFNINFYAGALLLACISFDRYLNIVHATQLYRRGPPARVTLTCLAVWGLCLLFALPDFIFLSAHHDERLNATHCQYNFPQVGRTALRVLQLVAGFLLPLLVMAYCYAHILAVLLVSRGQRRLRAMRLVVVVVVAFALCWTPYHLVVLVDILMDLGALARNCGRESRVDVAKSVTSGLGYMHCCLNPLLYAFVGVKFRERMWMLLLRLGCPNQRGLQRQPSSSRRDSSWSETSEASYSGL

[4] = as §1; assay type: ADME, organism-based, Plasma; set-up: dose 10 mg/kg, route oral; settings: plasma
Rattus norvegicus [5] = test: AUC in rat at 10 mg/kg, po after 6 hrs; assay type: ADME, organism-based, Plasma; set-up: time < 6 hr, dose 10 mg/kg, route oral; settings: in vivo

Chain of Voltage-gated inwardly rectifying potassium channel KCNH2 (Q12809 whole entry): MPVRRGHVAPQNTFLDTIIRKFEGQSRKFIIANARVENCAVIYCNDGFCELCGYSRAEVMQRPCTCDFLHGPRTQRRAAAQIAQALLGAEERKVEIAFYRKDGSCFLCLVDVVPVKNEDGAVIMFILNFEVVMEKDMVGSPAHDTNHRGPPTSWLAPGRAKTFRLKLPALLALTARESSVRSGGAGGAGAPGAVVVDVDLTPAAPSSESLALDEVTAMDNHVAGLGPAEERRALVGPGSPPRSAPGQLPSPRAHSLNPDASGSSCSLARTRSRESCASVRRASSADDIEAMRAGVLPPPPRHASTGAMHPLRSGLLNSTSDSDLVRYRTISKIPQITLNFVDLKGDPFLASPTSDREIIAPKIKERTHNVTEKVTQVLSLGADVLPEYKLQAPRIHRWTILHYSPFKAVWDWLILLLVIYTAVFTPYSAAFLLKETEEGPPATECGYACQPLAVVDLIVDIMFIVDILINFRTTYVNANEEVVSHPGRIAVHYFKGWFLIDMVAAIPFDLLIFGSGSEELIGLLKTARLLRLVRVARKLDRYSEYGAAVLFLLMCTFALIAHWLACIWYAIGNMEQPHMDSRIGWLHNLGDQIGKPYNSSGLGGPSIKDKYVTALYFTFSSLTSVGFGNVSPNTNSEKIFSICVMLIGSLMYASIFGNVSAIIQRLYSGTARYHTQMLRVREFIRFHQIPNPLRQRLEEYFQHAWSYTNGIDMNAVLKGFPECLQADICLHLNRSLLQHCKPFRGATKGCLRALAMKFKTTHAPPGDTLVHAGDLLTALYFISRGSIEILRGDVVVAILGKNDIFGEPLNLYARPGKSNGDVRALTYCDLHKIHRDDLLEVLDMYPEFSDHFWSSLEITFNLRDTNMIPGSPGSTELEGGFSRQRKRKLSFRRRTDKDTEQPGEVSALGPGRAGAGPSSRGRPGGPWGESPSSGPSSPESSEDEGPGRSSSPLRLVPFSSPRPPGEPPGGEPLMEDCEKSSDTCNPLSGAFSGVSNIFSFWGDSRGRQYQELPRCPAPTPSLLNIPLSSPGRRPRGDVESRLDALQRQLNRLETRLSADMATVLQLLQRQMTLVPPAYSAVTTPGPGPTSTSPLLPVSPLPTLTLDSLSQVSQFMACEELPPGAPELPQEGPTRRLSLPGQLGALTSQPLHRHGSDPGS

Row | Structure (SMILES) | inhibition (INH) [1] | AUC (Rattus norvegicus [2]) | IC50 [3] | AUC [4] | AUC (Rattus norvegicus [5])
1 | CC[C@H]1CN(c2nc(N)c(C(N)=O)nc2Cl)CCN1C1CCN(Cc2ccc(Cl)cc2)CC1 | > 90% | 5.1 uM.hr/ml |  |  | 
2 | CC[C@H]1CN(c2ncc(C#N)cc2Cl)CCN1C1CCN(Cc2ccc(Cl)cc2F)CC1 |  |  | 50.5 nM |  | 
3 | CC[C@H]1CN(c2ncc(-c3ncc[nH]3)cc2Cl)CCN1C1CCN(Cc2ccc(Cl)cc2F)CC1 |  |  | 0.3 nM |  | 
4 | CC[C@H]1CN(c2ncc(C3=NCCN3)cc2Cl)CCN1C1CCN(Cc2ccc(Cl)cc2F)CC1 |  |  | 1.3 nM |  | 
5 | CC[C@H]1CN(c2ncc(-c3nnc[nH]3)cc2Cl)CCN1C1CCN(Cc2ccc(Cl)cc2F)CC1 |  |  | 6.8 nM |  | 
6 | CC[C@H]1CN(c2ncc(-c3nnn[nH]3)cc2Cl)CCN1C1CCN(Cc2ccc(Cl)cc2F)CC1 |  |  | 1380 nM |  | 
7 | CC[C@H]1CN(c2ncc(-c3noc(=O)[nH]3)cc2Cl)CCN1C1CCN(Cc2ccc(Cl)cc2F)CC1 |  |  | 760 nM |  | 
8 | CC[C@H]1CN(c2ncc(-c3ncon3)cc2Cl)CCN1C1CCN(Cc2ccc(Cl)cc2F)CC1 |  |  | 286 nM |  | 
9 | CC[C@H]1CN(c2ncc(-c3nnco3)cc2Cl)CCN1C1CCN(Cc2ccc(Cl)cc2F)CC1 |  |  | 1.4 nM | 1.8 µM·h | 
10 | CC[C@H]1CN(c2nc(N)c(-c3nnco3)nc2Cl)CCN1C1CCN(Cc2ccc(Cl)cc2)CC1 |  |  | 5.2 nM |  | 
11 | CC[C@H]1CN(c2nc(N)c(-c3nnc(C)o3)nc2Cl)CCN1C1CCN(Cc2ccc(Cl)cc2)CC1 |  | 1 uM.hr/ml | 0.4 nM |  | 
12 | CC[C@H]1CN(c2nc(N)c(-c3nnc(C)o3)nc2Cl)CCN1C1CCN(C(=O)c2ccc(Cl)cc2)CC1 | 85% | 3.9 uM.hr/ml | 4.2 nM |  | 
13 | CC[C@H]1CN(c2nc(N)c(-c3nnc(C)o3)nc2Cl)CCN1C1CCN(C(=O)c2ccc(Cl)nc2N)CC1 | 26% | 10.2 uM.hr/ml | 2 nM |  | 
14 | CC[C@H]1CN(c2nc(N)c(-c3nnc(C4CC4)o3)nc2Cl)CCN1C1CCN(C(=O)c2ccc(Cl)nc2N)CC1 | 72% |  | 6 nM |  | 
15 | CC[C@H]1CN(c2nc(N)c(-c3nnc(CO)o3)nc2Cl)CCN1C1CCN(C(=O)c2ccc(Cl)nc2N)CC1 | 16% | 2.5 uM.hr/ml | 2.2 nM |  | 
16 | CC[C@H]1CN(c2nc(N)c(-c3nnc(N)o3)nc2Cl)CCN1C1CCN(C(=O)c2ccc(Cl)nc2N)CC1 | 7% | 0.3 uM.hr/ml | 1.3 nM |  | 
17 | CC[C@H]1CN(c2nc(N)c(-c3nnc(NS(C)(=O)=O)o3)nc2Cl)CCN1C1CCN(C(=O)c2ccc(Cl)nc2N)CC1 | 5% |  | 2300 nM |  | 
18 | CC[C@H]1CN(c2nc(N)c(-c3nnc(N(C)C)o3)nc2Cl)CCN1C1CCN(C(=O)c2ccc(Cl)nc2N)CC1 | 67% |  | 23.6 nM |  | 
19 | CC[C@H]1CN(c2nc(N)c(-c3nnc(NCCO)o3)nc2Cl)CCN1C1CCN(C(=O)c2ccc(Cl)nc2N)CC1 | 0% | 0.1 uM.hr/ml | 3.9 nM |  | 

Row | Structure (SMILES) | inhibition (INH) [1] | AUC (Rattus norvegicus [2]) | IC50 [3] | AUC [4] | AUC (Rattus norvegicus [5])
20 | CC[C@H]1CN(c2nc(N)c(-c3nnc(NC)o3)nc2Cl)CCN1C1CCN(C(=O)c2ccc(Cl)nc2N)CC1 | 39% | 5.5 uM.hr/ml | 1.6 nM |  | 
21 | CCNc1nnc(-c2nc(Cl)c(N3CCN(C4CCN(C(=O)c5ccc(Cl)nc5N)CC4)[C@@H](CC)C3)nc2N)o1 | 26% | 16.6 uM.hr/ml | 1 nM |  | 
22 | CCNc1nnc(-c2cnc(N3CCN(C4CCN(C(=O)c5ccc(Cl)nc5N)CC4)[C@@H](CC)C3)c(Cl)n2)o1 | 14% | 40.4 uM.hr/ml | 0.8 nM |  | 1.4 uM.hr/ml
23 | CCNc1nnc(-c2cnc(N3CCN(C4CCN(C(=O)c5ccc(Cl)nc5N)CC4)[C@@H](CC)C3)c(C)n2)o1 | 12% | 2.6 uM.hr/ml | 1.2 nM |  | 0.1 uM.hr/ml
24 | CCNc1nnc(-c2cnc(N3CCN(C4CCN(C(=O)c5ccc(Cl)nc5N)CC4)[C@@H](CC)C3)c(C(F)(F)F)n2)o1 | 43% | 25.3 uM.hr/ml | 1.5 nM |  | 4.2 uM.hr/ml
25 | CCNc1nnc(-c2cnc(N3CCN(C4CCN(C(=O)c5ccc(Cl)nc5N)CC4)[C@@H](CC)C3)c(CC)n2)o1 | 4% |  | 3.8 nM |  | 
26 | CCNc1nnc(-c2cnc(N3CCN(C4CCN(C(=O)c5ccc(Cl)nc5N)CC4)[C@@H](CC)C3)c(C3CC3)n2)o1 | 14% |  | 24.5 nM |  | 
27 | CCNc1nnc(-c2cnc(N3CCN(C4CCN(C(=O)c5ccc(Cl)nc5N)CC4)[C@@H](CC)C3)c(C(C)C)n2)o1 | 8% |  | 437 nM |  | 
28 | CCNc1nnc(-c2cnc(N3C[C@H](CC)N(C4CCN(C(=O)c5ccc(Cl)nc5N)CC4)C[C@H]3C)c(C)n2)o1 | 4% | 15.3 uM.hr/ml | 3.4 nM |  | 0.8 uM.hr/ml
29 | CCNc1nnc(-c2cnc(N3C[C@H](CC)N(C4CCN(C(=O)c5ccc(Cl)nc5N)CC4)C[C@H]3C)c(C(F)(F)F)n2)o1 | 22% | 30.2 uM.hr/ml | 3.6 nM |  | 5.1 uM.hr/ml
30 | CC[C@H]1CN(c2ncc(-c3ncc[nH]3)nc2C)[C@H](C)CN1C1CCN(C(=O)c2ccc(Cl)nc2N)CC1 | 22% | 6.7 uM.hr/ml | 1.8 nM |  | 0.3 uM.hr/ml
31 | CCNc1nnc(-c2cnc(N3CCN(C4CCN(C(=O)c5ccc(Cl)cc5)CC4)[C@@H](CC)C3)c(C)n2)o1 | 40% | 16.4 uM.hr/ml | 1.2 nM |  | 0.9 uM.hr/ml
32 | CCNc1nnc(-c2cnc(N3C[C@H](CC)N(C4CCN(C(=O)c5ccc(Cl)cc5)CC4)C[C@H]3C)c(C)n2)o1 | 25% | 16.6 uM.hr/ml | 2.8 nM |  | 3.3 uM.hr/ml
33 | CCNc1nnc(-c2cnc(N3C[C@H](CC)N(C4CCN(C(=O)c5ccc(Cl)cc5)CC4)C[C@H]3C)c(C(F)(F)F)n2)o1 | 27% | 9.9 uM.hr/ml | 1.8 nM |  | 2.3 uM.hr/ml
34 | CC[C@H]1CN(c2ncc(-c3nnc(NC)o3)nc2C)[C@H](C)CN1C1CCN(C(=O)c2ccc(Cl)cc2)CC1 | 17% | 18 uM.hr/ml | 6.2 nM |  | 2.4 uM.hr/ml
35 | CC[C@H]1CN(c2ncc(-c3nnc(N)o3)nc2C)[C@H](C)CN1C1CCN(C(=O)c2ccc(Cl)cc2)CC1 | 0% | 12.7 uM.hr/ml | 6.4 nM |  | 1 uM.hr/ml
36 | CC[C@H]1CN(c2ncc(-c3ncc[nH]3)nc2C)[C@H](C)CN1C1CCN(C(=O)c2ccc(Cl)cc2)CC1 | 36% | 7.3 uM.hr/ml | 1.6 nM |  | 0.8 uM.hr/ml
37 | CC[C@H]1CN(c2ncc(-c3nnc[nH]3)nc2C)[C@H](C)CN1C1CCN(C(=O)c2ccc(Cl)cc2)CC1 | 4% | 26.5 uM.hr/ml | 33.8 nM |  | 4.9 uM.hr/ml
